The record followed here is ChEMBL document CHEMBL5465560, “Selectivity Literature for EUbOPEN Chemogenomic Library” (2024).

In test [1] the target is Ephrin type-A receptor 4 (Homo sapiens, UniProt P54764). Description: Selectivity interaction (ProQinase) EUB0000171b EPHA4.
Test [2] deals with T1, Mitogen-activated protein kinase 13 (Homo sapiens) (UniProt O15264).
T1 sequence (whole entry): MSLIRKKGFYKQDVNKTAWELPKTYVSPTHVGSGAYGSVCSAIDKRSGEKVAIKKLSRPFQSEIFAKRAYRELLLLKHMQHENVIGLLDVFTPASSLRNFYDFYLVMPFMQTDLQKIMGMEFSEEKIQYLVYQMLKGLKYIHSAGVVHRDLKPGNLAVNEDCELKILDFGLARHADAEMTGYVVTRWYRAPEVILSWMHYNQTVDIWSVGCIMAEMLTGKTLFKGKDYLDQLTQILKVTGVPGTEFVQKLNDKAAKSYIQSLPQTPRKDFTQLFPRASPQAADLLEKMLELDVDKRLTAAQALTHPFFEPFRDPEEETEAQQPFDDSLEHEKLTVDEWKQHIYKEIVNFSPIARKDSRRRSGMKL
Conditions: at 10 µM.

In test [3] the target is MAP kinase-activated protein kinase 2 (Homo sapiens, UniProt P49137). Conditions: at 10 µM.
MAP kinase-activated protein kinase 2, sequence (P49137 whole entry, looked up): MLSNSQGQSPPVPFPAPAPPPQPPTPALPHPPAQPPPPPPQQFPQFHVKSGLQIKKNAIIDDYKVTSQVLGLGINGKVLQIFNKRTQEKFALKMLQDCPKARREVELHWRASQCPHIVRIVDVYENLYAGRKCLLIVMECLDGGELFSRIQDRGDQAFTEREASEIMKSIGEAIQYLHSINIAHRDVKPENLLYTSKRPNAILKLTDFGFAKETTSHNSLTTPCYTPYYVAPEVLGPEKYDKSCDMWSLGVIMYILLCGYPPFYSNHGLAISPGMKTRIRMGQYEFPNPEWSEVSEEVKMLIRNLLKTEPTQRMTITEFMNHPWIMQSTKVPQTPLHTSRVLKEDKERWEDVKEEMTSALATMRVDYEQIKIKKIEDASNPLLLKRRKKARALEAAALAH
Test [4] concerns the target T2, Myosin-IIIb (Homo sapiens) (UniProt Q8WXR4).
T2 sequence (whole entry): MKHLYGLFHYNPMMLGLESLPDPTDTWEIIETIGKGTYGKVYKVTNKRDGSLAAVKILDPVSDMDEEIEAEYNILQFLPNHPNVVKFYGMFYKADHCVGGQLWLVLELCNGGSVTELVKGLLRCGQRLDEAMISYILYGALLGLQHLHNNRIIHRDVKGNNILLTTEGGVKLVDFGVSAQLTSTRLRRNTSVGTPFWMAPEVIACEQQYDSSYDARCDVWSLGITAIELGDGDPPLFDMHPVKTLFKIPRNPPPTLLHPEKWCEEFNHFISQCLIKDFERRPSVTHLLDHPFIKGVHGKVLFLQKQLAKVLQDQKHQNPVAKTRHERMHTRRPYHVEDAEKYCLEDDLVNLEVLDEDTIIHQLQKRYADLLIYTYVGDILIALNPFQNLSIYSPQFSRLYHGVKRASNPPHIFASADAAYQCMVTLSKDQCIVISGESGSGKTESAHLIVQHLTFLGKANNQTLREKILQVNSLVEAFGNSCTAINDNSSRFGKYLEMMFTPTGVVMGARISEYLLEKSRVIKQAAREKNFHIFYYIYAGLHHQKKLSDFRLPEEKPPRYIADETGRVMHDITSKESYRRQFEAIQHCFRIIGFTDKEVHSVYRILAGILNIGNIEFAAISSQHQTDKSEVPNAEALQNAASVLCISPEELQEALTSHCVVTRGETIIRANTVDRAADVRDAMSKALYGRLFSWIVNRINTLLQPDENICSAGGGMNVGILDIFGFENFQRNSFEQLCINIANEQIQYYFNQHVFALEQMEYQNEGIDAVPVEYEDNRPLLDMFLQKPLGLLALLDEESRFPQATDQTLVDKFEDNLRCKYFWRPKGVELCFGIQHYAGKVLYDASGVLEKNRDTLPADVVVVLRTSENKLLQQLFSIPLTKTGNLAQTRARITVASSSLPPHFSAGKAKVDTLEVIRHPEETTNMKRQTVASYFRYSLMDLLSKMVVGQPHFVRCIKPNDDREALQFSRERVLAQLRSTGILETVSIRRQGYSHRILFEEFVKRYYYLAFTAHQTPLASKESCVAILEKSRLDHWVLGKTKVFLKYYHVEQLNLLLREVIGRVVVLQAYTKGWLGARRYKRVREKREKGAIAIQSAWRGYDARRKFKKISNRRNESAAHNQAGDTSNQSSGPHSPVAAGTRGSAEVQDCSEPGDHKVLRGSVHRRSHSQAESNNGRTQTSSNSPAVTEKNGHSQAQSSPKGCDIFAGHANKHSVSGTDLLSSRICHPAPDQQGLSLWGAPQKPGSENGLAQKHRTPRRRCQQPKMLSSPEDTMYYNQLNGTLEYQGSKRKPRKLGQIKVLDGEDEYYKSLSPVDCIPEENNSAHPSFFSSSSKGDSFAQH
Description: Selectivity interaction (KinomeScan (DiscoverX)) EUB0000695a MYO3B. To be noted: at 100 nM.

In test [5] the target is DNA (cytosine-5)-methyltransferase 3A (Homo sapiens) (UniProt Q9Y6K1). Description: Selectivity interaction (Methyltransferase screen (radiometric assays, panel of 8 PRMTs, 21 protein lysine methyltransferases, 3 DNA methyltransferases, and one RNA methyltransferase)) EUB0000272b DNMT3A.
DNA (cytosine-5)-methyltransferase 3A (Homo sapiens), sequence (Q9Y6K1 whole entry, looked up): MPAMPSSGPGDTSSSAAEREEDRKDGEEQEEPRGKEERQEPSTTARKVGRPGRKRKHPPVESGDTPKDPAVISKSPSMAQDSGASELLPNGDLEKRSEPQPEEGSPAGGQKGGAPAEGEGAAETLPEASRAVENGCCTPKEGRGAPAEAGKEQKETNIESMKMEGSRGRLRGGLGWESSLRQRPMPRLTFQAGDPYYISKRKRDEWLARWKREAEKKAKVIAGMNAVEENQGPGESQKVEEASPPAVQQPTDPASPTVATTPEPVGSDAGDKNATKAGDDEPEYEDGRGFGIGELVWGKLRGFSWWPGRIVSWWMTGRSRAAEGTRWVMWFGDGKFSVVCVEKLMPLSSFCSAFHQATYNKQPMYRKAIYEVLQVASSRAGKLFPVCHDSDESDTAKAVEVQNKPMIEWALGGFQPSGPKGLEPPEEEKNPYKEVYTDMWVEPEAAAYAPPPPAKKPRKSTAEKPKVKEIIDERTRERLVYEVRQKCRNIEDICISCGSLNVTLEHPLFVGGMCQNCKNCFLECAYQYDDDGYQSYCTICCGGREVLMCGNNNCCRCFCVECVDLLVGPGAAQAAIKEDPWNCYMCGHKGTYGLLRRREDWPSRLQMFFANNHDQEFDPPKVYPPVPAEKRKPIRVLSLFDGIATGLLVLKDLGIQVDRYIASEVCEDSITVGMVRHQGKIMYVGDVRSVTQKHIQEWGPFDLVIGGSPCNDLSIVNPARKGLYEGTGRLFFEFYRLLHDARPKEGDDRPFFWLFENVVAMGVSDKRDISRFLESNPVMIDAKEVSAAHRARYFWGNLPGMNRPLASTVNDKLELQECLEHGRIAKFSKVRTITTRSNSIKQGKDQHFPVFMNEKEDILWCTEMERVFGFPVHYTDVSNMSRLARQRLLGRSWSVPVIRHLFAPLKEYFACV
The target in test [6] is Serine/threonine-protein kinase N1 (Homo sapiens, UniProt Q16512). Put plainly: Selectivity interaction (SelectScreen profiling (Invitrogen)) EUB0000607a PKN1. Conditions: at 2 µM.
The target of test [7] is Bromodomain-containing protein 2 (Homo sapiens) (UniProt P25440). Put plainly: Selectivity interaction (Human bromodomain panel (DSF assay)) EUB0000233b BRD2. In general terms: Differential scanning fluorimetry follows unfolding on heating by fluorescence.
Bromodomain-containing protein 2 (Homo sapiens), sequence (P25440 whole entry, looked up): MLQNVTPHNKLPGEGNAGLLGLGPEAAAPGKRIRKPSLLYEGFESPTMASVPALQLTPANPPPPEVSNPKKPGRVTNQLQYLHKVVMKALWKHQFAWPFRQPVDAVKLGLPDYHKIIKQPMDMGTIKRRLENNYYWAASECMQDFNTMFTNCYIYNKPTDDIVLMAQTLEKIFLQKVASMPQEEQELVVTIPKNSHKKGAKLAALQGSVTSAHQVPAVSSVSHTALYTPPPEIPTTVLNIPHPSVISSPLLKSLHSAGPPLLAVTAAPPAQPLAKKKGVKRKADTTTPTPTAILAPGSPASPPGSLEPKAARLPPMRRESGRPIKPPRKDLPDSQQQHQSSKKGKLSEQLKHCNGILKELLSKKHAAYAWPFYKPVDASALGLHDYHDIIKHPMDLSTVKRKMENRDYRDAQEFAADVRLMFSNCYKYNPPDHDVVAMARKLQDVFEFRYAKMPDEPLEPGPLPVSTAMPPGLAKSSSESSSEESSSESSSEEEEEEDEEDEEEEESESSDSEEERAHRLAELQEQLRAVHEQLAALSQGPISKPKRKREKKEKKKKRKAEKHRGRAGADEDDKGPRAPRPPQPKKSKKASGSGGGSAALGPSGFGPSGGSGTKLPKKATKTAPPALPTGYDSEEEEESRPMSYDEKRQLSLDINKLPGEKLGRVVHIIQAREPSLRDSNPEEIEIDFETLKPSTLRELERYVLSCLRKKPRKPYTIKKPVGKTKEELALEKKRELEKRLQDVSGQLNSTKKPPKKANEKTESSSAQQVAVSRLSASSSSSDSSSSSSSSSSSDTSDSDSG
For test [8], the target named is G protein-coupled receptor kinase 4 (Homo sapiens) (UniProt P32298). Description: Selectivity interaction (KinomeScan (DiscoverX)) EUB0001619a GRK4. To be noted: at 1 µM.
G protein-coupled receptor kinase 4 (Homo sapiens), sequence (P32298 whole entry, looked up): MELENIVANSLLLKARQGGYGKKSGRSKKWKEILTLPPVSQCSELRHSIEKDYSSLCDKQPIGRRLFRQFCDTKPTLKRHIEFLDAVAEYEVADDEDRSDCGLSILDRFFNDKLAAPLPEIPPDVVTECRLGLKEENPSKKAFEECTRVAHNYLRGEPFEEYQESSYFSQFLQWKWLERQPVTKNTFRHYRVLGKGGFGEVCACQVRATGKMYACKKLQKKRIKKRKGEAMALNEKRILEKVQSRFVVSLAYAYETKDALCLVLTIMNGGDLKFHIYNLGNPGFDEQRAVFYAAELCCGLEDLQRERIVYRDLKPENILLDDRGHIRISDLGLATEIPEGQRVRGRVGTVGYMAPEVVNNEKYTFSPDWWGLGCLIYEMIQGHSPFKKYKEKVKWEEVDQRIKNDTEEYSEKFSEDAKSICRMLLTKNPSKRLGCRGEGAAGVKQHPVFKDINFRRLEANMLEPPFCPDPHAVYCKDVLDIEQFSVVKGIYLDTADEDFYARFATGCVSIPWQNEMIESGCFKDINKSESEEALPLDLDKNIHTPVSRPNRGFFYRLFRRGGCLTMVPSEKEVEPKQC
Test [9] deals with Serine/threonine-protein kinase PLK1 (Homo sapiens, UniProt P53350). Description: Selectivity interaction (Kinase panel (KiNativ target engagement assay in Jurkat cells)) EUB0001635a PLK1. The test is classed as cell-based. To be noted: Selectivity number of off-targets 0.0, Selectivity number of targets 233.0, Source Knowledge https://www.sciencedirect.com/science/article/pii/S2451945619300674?via%3Dihub, at 1 µM.
Serine/threonine-protein kinase PLK1, sequence (P53350 whole entry): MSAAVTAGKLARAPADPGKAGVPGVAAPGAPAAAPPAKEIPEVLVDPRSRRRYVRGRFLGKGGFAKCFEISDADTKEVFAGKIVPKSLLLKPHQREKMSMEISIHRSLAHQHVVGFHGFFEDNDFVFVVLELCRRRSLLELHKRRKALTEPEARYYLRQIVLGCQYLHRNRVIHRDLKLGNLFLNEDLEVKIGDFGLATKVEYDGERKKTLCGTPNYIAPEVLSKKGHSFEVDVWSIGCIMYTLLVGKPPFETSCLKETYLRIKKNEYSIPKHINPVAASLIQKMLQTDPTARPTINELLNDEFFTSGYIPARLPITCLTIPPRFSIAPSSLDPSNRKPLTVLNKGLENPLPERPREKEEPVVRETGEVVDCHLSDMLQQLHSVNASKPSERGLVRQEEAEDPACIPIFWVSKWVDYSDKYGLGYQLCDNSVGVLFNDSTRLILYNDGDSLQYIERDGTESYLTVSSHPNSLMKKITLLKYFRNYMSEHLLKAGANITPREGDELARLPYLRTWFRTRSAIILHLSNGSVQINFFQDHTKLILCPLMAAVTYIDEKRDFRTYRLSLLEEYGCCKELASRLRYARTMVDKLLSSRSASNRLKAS

Ephrin type-A receptor 4, sequence (P54764 whole entry): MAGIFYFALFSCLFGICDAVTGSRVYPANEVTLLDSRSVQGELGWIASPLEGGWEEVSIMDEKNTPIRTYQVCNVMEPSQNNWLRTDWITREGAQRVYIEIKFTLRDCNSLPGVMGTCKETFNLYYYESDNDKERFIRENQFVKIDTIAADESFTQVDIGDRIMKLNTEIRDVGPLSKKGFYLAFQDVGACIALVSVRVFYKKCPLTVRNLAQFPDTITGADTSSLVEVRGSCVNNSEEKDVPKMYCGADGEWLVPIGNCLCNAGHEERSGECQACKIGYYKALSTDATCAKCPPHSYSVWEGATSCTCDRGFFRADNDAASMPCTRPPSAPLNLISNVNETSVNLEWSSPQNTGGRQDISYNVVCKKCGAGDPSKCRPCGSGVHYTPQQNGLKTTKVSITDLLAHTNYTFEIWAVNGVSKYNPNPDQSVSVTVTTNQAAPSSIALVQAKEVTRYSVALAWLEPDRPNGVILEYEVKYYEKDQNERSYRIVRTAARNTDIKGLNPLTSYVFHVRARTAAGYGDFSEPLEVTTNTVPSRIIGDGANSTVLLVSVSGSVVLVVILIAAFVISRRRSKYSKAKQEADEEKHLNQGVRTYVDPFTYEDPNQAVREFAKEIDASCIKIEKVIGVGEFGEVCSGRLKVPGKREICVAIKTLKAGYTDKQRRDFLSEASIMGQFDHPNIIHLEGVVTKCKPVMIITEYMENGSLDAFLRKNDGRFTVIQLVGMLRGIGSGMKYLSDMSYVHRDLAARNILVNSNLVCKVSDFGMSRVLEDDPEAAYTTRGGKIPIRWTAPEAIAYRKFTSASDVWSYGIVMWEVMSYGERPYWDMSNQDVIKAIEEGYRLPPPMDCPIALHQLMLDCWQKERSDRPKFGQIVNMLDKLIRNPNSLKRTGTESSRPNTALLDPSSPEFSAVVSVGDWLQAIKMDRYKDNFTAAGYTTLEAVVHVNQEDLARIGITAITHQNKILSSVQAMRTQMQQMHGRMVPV

Regarding `C=CC(=O)Nc1cccc(C(=O)Nc2ccc(Nc3cc(-c4[nH]c(SC)nc4C)ccn3)cc2)c1`, the % of control in test [1] (at 1 µM) turned out to be 93%; in [1] (at 5 µM) it was 78%. Take `Cc1cc([C@@H](C)Nc2ccccc2C(=O)O)c2nc(N3CCOCC3)cc(=O)n2c1` [AZD-6482]: in test [2], the % of control was found to be 87%. For the molecule `CCN(CC)CCCCNc1ncc2cc(-c3cc(OC)cc(OC)c3)c(NC(=O)NC(C)(C)C)nc2n1`, the % of control in [3] came to 100%. For the molecule `Cc1cc(F)c(C(=O)Nc2cccc(-c3nncn3C(C)C)n2)cc1-n1cnc(C2CC2)c1`, the % of control in test [4] was found to be 80%.

For `Cc1cc(C)cc([C@H]2c3cc(C)ccc3NC(=O)CN2C(=O)c2ccc(Br)s2)c1`, the % of activity in [5] (at 1 µM) turned out to be 98.3%; in test [5] (at 10 µM), 93%. Turning to `CNC(=O)Nc1ccc(-c2nc(N3CC4CCC(C3)O4)c3cnn(C4CCC5(CC4)OCCO5)c3n2)cc1`, the % of inhibition in test [6] was 14%.

Regarding `CN(C)CCCOc1ccc(-c2cc(NCCCn3cccn3)nc(S(C)(=O)=O)n2)cc1`, in test [7], the dTM is under 2 K. For the molecule `N#Cc1cccc(-c2c[nH]c3ncnc(N4CCOCC4)c23)c1`, the % of control in test [8] worked out at 52%. With `C=CC(=O)Nc1ccc(C(=O)Nc2[nH]nc3c2CN(C(=O)N[C@H](CN(C)C)c2ccccc2)C3(C)C)cc1`, in test [9], the % of engagement was 5%.
